According to patent US8273527B2, “Viral variants” (priority 1999, dated 2012):

How the values were obtained:
[1] = tested on: HBV; settings: in vitro; cited from earlier work
[2] = tested on: HBV; experiment: FCV prophylaxis liver transplantation trial (response pre-OLT, HBV recurrence post-OLT); format: in vivo, patients
Text: The clinical details of the FCV prophylaxis liver transplantation protocol as previously described (19). Briefly, the aim of the study was to compare the safety and efficacy of oral FCV and IV penciclovir in reducing the risk of hepatitis B re-infection post-OLT in liver transplant patients. The study design was a multicentre, randomized, part double-blind, part placebo controlled trial in patients with end stage liver disease requiring OLT. Patients with HBV DNA levels more than 90 pg/ml at study entry (by hybridization) [high replicators] were treated with both FCV and HBIG post-OLT. These high replicators were treated with FCV (500 mg tds) to reduce HBV DNA levels prior to OLT. Famciclovir treatment was continued for 12 months post-OLT. An untreated control group of patients with HBV DNA levels less than 90 pg/ml [low replicators] at study entry were treated with HBIG alone post-OLT. In the original study, thirty six patients underwent OLT, and of these the clinical and virological outcome of twenty-two of the FCV treated patients has recently been presented (17 Manns).
Twenty six patients who had HBV levels more than 90 pg/ml at study entry (high HBV replicator [HR]) were treated with FCV pre-OLT and those patients who responded were then treated with HBIG plus FCV post-OLT. […]

[3] = tested on: HBV; settings: one patient with severe hepatitis B following OLT; cited from earlier work
[4] = tested on: duck HBV virus; settings: oral, in vivo; cited from earlier work
[5] = target: HBV DNA polymerase-reverse transcriptase (Hepatitis B virus genotype D subtype ayw, UniProt P03156); settings: in vitro; cited from earlier work
Sequence of HBV DNA polymerase-reverse transcriptase (P03156 whole entry): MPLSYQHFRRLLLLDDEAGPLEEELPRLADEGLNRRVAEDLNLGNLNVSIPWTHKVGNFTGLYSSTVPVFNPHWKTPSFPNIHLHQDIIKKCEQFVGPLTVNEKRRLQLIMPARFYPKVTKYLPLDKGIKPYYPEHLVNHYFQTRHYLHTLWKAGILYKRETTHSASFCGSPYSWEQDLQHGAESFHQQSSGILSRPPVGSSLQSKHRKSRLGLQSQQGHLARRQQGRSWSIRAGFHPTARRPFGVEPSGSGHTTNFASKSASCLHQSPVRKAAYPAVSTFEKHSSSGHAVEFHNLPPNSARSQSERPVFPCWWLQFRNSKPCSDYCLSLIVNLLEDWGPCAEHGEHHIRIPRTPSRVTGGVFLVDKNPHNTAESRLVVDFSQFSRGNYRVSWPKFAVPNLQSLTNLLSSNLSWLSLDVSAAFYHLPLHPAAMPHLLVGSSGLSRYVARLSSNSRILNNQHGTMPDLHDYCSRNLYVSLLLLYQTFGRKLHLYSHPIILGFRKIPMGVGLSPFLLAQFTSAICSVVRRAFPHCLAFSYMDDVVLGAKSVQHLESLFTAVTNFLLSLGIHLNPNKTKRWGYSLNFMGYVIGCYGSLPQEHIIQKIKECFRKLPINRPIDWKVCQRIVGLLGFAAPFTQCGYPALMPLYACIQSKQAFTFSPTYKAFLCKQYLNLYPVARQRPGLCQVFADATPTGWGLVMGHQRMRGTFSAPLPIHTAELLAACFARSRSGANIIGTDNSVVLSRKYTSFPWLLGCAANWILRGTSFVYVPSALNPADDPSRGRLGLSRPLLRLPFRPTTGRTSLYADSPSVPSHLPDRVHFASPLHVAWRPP

[6] = tested on: duck HBV; settings: in vitro; cited from earlier work

## Nc1ncnc2c1ncn2CCOCP(=O)(O)O [Adefovir]
[1]
  anti-HBV activity: effective anti-HBV activity

## CC(=O)OCC(CCn1cnc2cnc(N)nc21)COC(C)=O [FCV, famciclovir]
[2]; of 26 high HBV replicators (HBV more than 90 pg/ml at study entry) treated with FCV pre-OLT
  patients who responded to FCV: 19 patients
[2]; of the initial 26 high HBV replicators treated with FCV pre-OLT
  patients who did not initially respond to FCV: 6 patients
[3]
  effect on HBV DNA replication: reduce HBV DNA replication
[4]
  inhibition of intra-hepatic replication of duck HBV virus: inhibit

## Nc1nc2c(ncn2CCC(CO)CO)c(=O)[nH]1 [Penciclovir, penciclovir]
[5]
  inhibition of HBV DNA polymerase-reverse transcriptase activity: inhibit
[6]
  inhibitory activity against duck HBV DNA synthesis: potent inhibitory activity
